ChEMBL document CHEMBL1932962, “Discovery, design and synthesis of novel potent and selective sphingosine-1-phosphate 4 receptor (S1P₄-R) agonists” (Bioorg Med Chem Lett, 2012)

Columns and labels:
[1] = biological target: T1, Sphingosine 1-phosphate receptor 4 (Homo sapiens, UniProt O95977); experiment: Agonist activity at human S1P4R expressed in human U2OS cells containing EDG6 gene co-expressing GAL4-VP16 and beta-arrestin/TEV protease assessed as migration of VP16-GAL4 into nucleus up to 25 uM by […] based beta-lactamase reporter gene assay; assay type: functional, cell-based
T1 sequence (O95977 whole entry): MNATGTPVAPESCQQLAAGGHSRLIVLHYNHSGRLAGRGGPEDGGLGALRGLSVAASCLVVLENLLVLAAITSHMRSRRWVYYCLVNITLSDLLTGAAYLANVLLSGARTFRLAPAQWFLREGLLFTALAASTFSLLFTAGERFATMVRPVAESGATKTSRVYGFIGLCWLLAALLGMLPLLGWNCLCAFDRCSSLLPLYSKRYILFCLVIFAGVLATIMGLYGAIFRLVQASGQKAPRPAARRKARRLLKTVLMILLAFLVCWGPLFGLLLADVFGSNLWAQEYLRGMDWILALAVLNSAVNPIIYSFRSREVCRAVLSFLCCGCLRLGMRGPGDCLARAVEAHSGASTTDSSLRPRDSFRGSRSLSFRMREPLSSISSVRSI

[2] = biological target: T1, Sphingosine 1-phosphate receptor 4; experiment: Agonist activity at human S1P4R expressed in human U2OS cells containing EDG6 gene co-expressing GAL4-VP16 and beta-arrestin/TEV protease assessed as migration of VP16-GAL4 into nucleus by […] based beta-lactamase reporter gene assay; assay type: functional, cell-based
[3] = biological target: T2, Sphingosine 1-phosphate receptor 4 (Homo sapiens) (UniProt O95977); experiment: Agonist activity at human S1P4R expressed in human U2OS cells containing EDG6 gene co-expressing GAL4-VP16 and beta-arrestin/TEV protease assessed as migration of VP16-GAL4 into nucleus at 1300 nM by […] based beta-lactamase reporter gene assay; assay type: functional, cell-based
T2 sequence (whole entry): T1 sequence (O95977 whole entry)

[4] = biological target: T2, Sphingosine 1-phosphate receptor 4 (Homo sapiens); experiment: Agonist activity at human S1P4R expressed in human U2OS cells containing EDG6 gene co-expressing GAL4-VP16 and beta-arrestin/TEV protease assessed as migration of VP16-GAL4 into nucleus at 6000 nM by […] based beta-lactamase reporter gene assay; assay type: functional, cell-based
[5] = biological target: Sphingosine 1-phosphate receptor 2 (Homo sapiens, UniProt O95136); experiment: Agonist activity at S1P2R up to 25 uM; assay type: functional
Sequence of Sphingosine 1-phosphate receptor 2 (O95136 whole entry): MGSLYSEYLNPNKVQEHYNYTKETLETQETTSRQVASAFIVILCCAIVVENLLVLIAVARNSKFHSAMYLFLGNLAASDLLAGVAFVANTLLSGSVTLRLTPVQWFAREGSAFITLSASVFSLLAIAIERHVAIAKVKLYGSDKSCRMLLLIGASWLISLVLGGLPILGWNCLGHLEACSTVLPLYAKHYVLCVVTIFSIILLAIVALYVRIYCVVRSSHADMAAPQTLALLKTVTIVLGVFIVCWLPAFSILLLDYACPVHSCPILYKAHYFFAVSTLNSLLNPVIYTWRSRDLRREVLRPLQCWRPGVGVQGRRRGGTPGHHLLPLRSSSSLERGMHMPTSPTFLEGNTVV

[6] = biological target: Sphingosine 1-phosphate receptor 3 (Homo sapiens, UniProt Q99500); experiment: Agonist activity at S1P3R up to 25 uM; assay type: functional
Sequence of Sphingosine 1-phosphate receptor 3 (Q99500 whole entry): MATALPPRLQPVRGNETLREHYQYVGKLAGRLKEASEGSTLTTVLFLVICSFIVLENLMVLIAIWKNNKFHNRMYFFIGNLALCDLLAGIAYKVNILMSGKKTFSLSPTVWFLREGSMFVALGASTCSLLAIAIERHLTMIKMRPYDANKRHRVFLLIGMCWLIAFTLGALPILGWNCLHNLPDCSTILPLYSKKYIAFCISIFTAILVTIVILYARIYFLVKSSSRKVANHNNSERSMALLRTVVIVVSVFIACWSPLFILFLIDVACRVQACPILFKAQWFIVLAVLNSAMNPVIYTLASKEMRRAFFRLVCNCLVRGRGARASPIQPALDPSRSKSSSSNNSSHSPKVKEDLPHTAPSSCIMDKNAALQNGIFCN

[7] = biological target: Sphingosine 1-phosphate receptor 1 (Homo sapiens, UniProt P21453); experiment: Agonist activity at S1P1R up to 25 uM; assay type: functional
Sequence of Sphingosine 1-phosphate receptor 1 (P21453 whole entry): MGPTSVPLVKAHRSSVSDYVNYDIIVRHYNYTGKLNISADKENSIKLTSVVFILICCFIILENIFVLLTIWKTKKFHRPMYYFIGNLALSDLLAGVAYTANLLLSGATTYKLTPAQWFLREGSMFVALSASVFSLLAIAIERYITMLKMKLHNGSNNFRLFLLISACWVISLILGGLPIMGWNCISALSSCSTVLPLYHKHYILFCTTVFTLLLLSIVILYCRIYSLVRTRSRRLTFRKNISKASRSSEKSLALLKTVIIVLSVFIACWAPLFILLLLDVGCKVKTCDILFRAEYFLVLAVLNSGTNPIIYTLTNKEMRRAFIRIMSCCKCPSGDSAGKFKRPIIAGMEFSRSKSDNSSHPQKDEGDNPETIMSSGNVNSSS

[8] = biological target: Sphingosine 1-phosphate receptor 5 (Homo sapiens, UniProt Q9H228); experiment: Agonist activity at S1P5R up to 25 uM; assay type: functional
Sequence of Sphingosine 1-phosphate receptor 5 (Q9H228 whole entry, the tested form may be a part): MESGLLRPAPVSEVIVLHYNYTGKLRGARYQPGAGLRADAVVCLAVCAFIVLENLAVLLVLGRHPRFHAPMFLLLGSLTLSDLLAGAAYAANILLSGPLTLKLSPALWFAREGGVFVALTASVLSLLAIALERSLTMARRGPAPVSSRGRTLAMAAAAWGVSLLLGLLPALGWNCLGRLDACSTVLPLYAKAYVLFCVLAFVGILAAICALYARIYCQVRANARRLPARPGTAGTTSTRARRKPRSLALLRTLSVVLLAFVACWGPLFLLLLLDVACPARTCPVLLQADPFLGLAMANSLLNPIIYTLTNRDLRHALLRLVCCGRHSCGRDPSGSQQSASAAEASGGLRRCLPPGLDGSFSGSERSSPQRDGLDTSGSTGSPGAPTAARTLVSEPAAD

[9] = biological target: T2, Sphingosine 1-phosphate receptor 4 (Homo sapiens); experiment: Agonist activity at human S1P4R expressed in human U2OS cells containing EDG6 gene co-expressing GAL4-VP16 and beta-arrestin/TEV protease assessed as migration of VP16-GAL4 into nucleus at 50 uM by […] based beta-lactamase reporter gene assay; assay type: functional, cell-based
[10] = biological target: T2, Sphingosine 1-phosphate receptor 4 (Homo sapiens); experiment: Agonist activity at human S1P4R expressed in human U2OS cells containing EDG6 gene co-expressing GAL4-VP16 and beta-arrestin/TEV protease assessed as migration of VP16-GAL4 into nucleus at 2600 nM by […] based beta-lactamase reporter gene assay; assay type: functional, cell-based

## Cc1ccc(OCCOc2ccc(Cl)cc2Cl)c(C(=O)O)n1
[1]
  EC50: Not Active

## O=Cc1ccc(OCCOc2ccc(Cl)cc2Cl)c(Cl)n1
[2]
  EC50: 1800 nM

## Cc1ccc(OCCCOc2ccc(Cl)cc2Cl)c([N+](=O)[O-])n1
[1]
  EC50: Not Active

## Cc1ccc(OCCOc2ccc(Cl)cc2Cl)c([N+](=O)[O-])c1
[2]
  EC50: 1300 nM
[3]
  inhibition: 40%

## Cc1cc(C)c(OCCOc2ccc(Cl)cc2Cl)c(Br)n1
[1]
  EC50: Not Active

## Cc1ccc(OCCOc2ccc(-c3ccccc3)cc2Cl)c([N+](=O)[O-])n1
[1]
  EC50: Not Active

## Clc1ccc(OCCOc2ccc(-c3ccccc3)nc2Br)c(Cl)c1
[2]
  EC50: 6000 nM
[4]
  inhibition: 70%

## OCc1ccc(OCCOc2ccc(Cl)cc2Cl)c(I)n1
[2]
  EC50: 287 nM
[5]
  EC50: Not Active
[6]
  EC50: Not Active
[7]
  EC50: Not Active
[8]
  EC50: Not Active

## CCc1nc(C)ccc1OCCOc1ccc(Cl)cc1Cl
[2]
  EC50: 7300 nM

## Cc1ccc(OCCOc2ccc(Cl)cc2Br)c([N+](=O)[O-])n1
[2]
  EC50: 232 nM
[5]
  EC50: Not Active
[6]
  EC50: Not Active
[7]
  EC50: Not Active
[8]
  EC50: Not Active

## CC(C)=Cc1ccc(OCCOc2ccc(Cl)cc2Cl)c(Cl)n1
[1]
  EC50: Not Active

## Cc1ccc(OCCOc2ccc(Br)cc2Cl)c([N+](=O)[O-])n1
[2]
  EC50: 220 nM
[5]
  EC50: Not Active
[6]
  EC50: Not Active
[7]
  EC50: Not Active
[8]
  EC50: Not Active

## Cc1ccc(OCCOc2ccc(C)nc2[N+](=O)[O-])c(C)c1
[2]
  EC50: 7200 nM

## Cc1ccc(OCCCc2ccc(Cl)cc2Cl)c([N+](=O)[O-])n1
[2]
  EC50: 920 nM

## Cc1ccc(OC2CCCC2Oc2ccc(Cl)cc2Cl)c([N+](=O)[O-])n1 (stereo unspecified)
[1]
  EC50: Not Active

## Cc1ccc(OCCOc2ccc(Cl)cc2Cl)c(C(=O)N(C)C)n1
[1]
  EC50: Not Active

## Cc1ccc(OCCOc2c(Cl)cc(Cl)cc2Cl)c([N+](=O)[O-])n1
[2]
  EC50: 570 nM
[5]
  EC50: Not Active
[6]
  EC50: Not Active
[7]
  EC50: Not Active
[8]
  EC50: Not Active

## Clc1ccc(OCCOc2cccnc2Br)c(Cl)c1
[2]
  EC50: 1300 nM

## FCc1ccc(OCCOc2ccc(Cl)cc2Cl)c(Cl)n1
[2]
  EC50: 45 nM
[5]
  EC50: Not Active
[6]
  EC50: Not Active
[7]
  EC50: Not Active
[8]
  EC50: Not Active

## O=Cc1ccc(OCCOc2ccc(Cl)cc2Cl)c(I)n1
[2]
  EC50: 2100 nM

## COC(=O)c1nc(C)ccc1OCCOc1ccc(Cl)cc1Cl
[2]
  EC50: 4800 nM

## Cc1ccc(OCCOc2ccc([N+](=O)[O-])cc2F)c([N+](=O)[O-])n1
[2]
  EC50: 2800 nM

## Cc1ccc(OCCOc2ccc(Cl)cc2Cl)c(I)n1
[2]
  EC50: 54 nM
[5]
  EC50: Not Active
[6]
  EC50: Not Active
[7]
  EC50: Not Active
[8]
  EC50: Not Active

## Fc1ccc(OCCOc2ccc(Cl)cc2Cl)c(Br)n1
[2]
  EC50: 208 nM

## O=[N+]([O-])c1nc(Cl)ccc1OCCOc1ccc(Cl)cc1Cl
[2]
  EC50: 304 nM
[5]
  EC50: Not Active
[6]
  EC50: Not Active
[7]
  EC50: Not Active
[8]
  EC50: Not Active

## OCc1ccc(OCCOc2ccc(Cl)cc2Cl)c(Cl)n1
[2]
  EC50: 1500 nM

## COc1cc(Cl)ccc1OCCOc1ccc(C)nc1[N+](=O)[O-]
[2]
  EC50: 5400 nM

## COCc1ccc(OCCOc2ccc(Cl)cc2Cl)c(Cl)n1
[1]
  EC50: Not Active

## Cc1ccc(OCCOc2ccc(F)cc2F)c([N+](=O)[O-])n1
[9]
  inhibition: 40%

## Cc1ccc(OCCOc2ccc(Cl)c(Cl)c2)c([N+](=O)[O-])n1
[1]
  EC50: Not Active

## Cc1ccc(OCCOc2ccc(Cl)cc2Cl)cn1
[1]
  EC50: Not Active

## Cc1ccc(OCCOc2ccc(Cl)cc2Cl)c(-c2ccccc2)n1
[1]
  EC50: Not Active

## Cc1ccc(OCCOc2ccc(Cl)cc2Cl)c(C)n1
[2]
  EC50: 2600 nM
[10]
  inhibition: 65%

## Cc1ccc(OCCOc2ccc(Cl)cc2Cl)c(N)n1
[1]
  EC50: Not Active

## Cc1ccc(OCCc2ccc(Cl)cc2Cl)c([N+](=O)[O-])n1
[1]
  EC50: Not Active

## C=Cc1ccc(OCCOc2ccc(Cl)cc2Cl)c(Cl)n1
[2]
  EC50: 658 nM

## Cc1ccc(OCCOc2ccccc2Cl)c([N+](=O)[O-])n1
[1]
  EC50: Not Active

## Cc1ccc2oc(COc3ccc(Cl)cc3Cl)nc2n1
[1]
  EC50: Not Active

## Cc1ccc(OCCOc2cc(Cl)cc([N+](=O)[O-])c2)c([N+](=O)[O-])n1
[2]
  EC50: 3500 nM

## Cc1ccc(OCCOc2ccc(Cl)cc2)c([N+](=O)[O-])n1
[1]
  EC50: Not Active

## Cc1ccc(OCCOc2ccc(Br)cc2C(F)(F)F)c([N+](=O)[O-])n1
[2]
  EC50: 601 nM
[5]
  EC50: Not Active
[6]
  EC50: Not Active
[7]
  EC50: Not Active
[8]
  EC50: Not Active

## Cc1ccc(OC(=O)COc2ccc(Cl)cc2Cl)c([N+](=O)[O-])n1
[1]
  EC50: Not Active

## Cc1ccc(OCCOc2ccc(F)cc2Cl)c([N+](=O)[O-])n1
[2]
  EC50: 2600 nM

## Cc1ccc(OCCOc2cccc(Cl)c2Cl)c([N+](=O)[O-])n1
[1]
  EC50: Not Active

## Cc1ccc(OCCOc2ccccc2)c([N+](=O)[O-])n1
[1]
  EC50: Not Active

## Cc1ccc(OCCOc2ccc(Cl)cc2F)c([N+](=O)[O-])n1
[2]
  EC50: 3100 nM

## Cc1ccc(OCCOc2ccc(Cl)cc2Cl)c([N+](=O)[O-])n1
[2]
  EC50: 162 nM
[5]
  EC50: Not Active
[6]
  EC50: Not Active
[7]
  EC50: Not Active
[8]
  EC50: Not Active

## Clc1ccc(OCCOc2ccc(Br)nc2Br)c(Cl)c1
[2]
  EC50: 46 nM
[5]
  EC50: Not Active
[6]
  EC50: Not Active
[7]
  EC50: Not Active
[8]
  EC50: Not Active

## Cc1ccc(OCCOc2ccc(Cl)cc2Cl)c(Br)n1
[2]
  EC50: 52 nM
[5]
  EC50: Not Active
[6]
  EC50: Not Active
[7]
  EC50: Not Active
[8]
  EC50: Not Active

## Cc1ccc(NCCOc2ccc(Cl)cc2Cl)c([N+](=O)[O-])n1
[1]
  EC50: Not Active

## O=[N+]([O-])c1ncccc1OCCOc1ccc(Cl)cc1Cl
[2]
  EC50: 2980 nM

## COc1ccc(OCCOc2ccc(C)nc2[N+](=O)[O-])c(Cl)c1
[2]
  EC50: 3900 nM

## Cc1ccc(OCCOc2ccc(Cl)cc2Cl)c(CO)n1
[1]
  EC50: Not Active

## Cc1ccc(OCCOc2cc(Cl)ccc2Cl)c([N+](=O)[O-])n1
[1]
  EC50: Not Active
